# Measured values published in ChEMBL document CHEMBL1759996, “Design and synthesis of pyridin-2-yloxymethylpiperidin-1-ylbutyl amide CCR5 antagonists that are potent inhibitors of M-tropic (R5) HIV-1 replication” (Bioorg Med Chem Lett, 2011).
# What was measured:
# [1] = Cytotoxicity against human PBMC; format: cell-based
# [2] = target: C-C chemokine receptor type 5 (Homo sapiens, UniProt P51681); test: Displacement of […] from CCR5 expressed in HEK293F cells; format: cell-based
# [3] = system: Human immunodeficiency virus 1; test: Antiviral activity against Human immunodeficiency virus 1 BAL infected in human PBMC assessed as inhibition of viral replication by p24 antigen specific ELISA; format: functional, organism-based
# Sequence of C-C chemokine receptor type 5 (P51681 whole entry): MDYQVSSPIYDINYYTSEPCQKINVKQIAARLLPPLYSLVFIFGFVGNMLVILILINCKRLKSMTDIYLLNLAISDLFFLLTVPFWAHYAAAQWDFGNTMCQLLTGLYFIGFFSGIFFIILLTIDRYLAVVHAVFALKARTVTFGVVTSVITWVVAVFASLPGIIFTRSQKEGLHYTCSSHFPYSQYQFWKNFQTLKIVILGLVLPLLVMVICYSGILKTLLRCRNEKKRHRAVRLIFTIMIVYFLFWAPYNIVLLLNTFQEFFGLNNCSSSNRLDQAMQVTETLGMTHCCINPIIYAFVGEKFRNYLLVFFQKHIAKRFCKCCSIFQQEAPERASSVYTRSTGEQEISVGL
SMILES,CC50 [1],IC50 [2],IC50 [3]
CC(CCNC(=O)c1c(Cl)cncc1Cl)N1CCC(C(Oc2cccc(C#N)n2)c2ccc(C(F)(F)F)cc2)CC1 (mixture of isomers),15.7 µM,0.04 µM,0.009 µM
CC(CCNC(=O)c1c(Cl)cncc1Cl)N1CCC(C(Oc2ccccn2)c2ccc(C(F)(F)F)cc2)CC1 (mixture of isomers),34.1 µM,0.03 µM,0.13 µM
Cc1ccc(OC(c2ccc(Br)cc2)C2CCN(C(C)CCNC(=O)c3c(Cl)cncc3Cl)CC2)nc1 (mixture of isomers),32.2 µM,3.8 µM,> 1.29 µM
CC(CCNC(=O)c1c(Cl)cncc1Cl)N1CCC(C(Oc2ccccn2)c2ccc(Br)cc2)CC1 (mixture of isomers),33.7 µM,0.14 µM,3.76 µM
CC(CCNC(=O)c1c(Cl)cncc1Cl)N1CCC(C2(c3ccc(C(F)(F)F)cc3)Cc3ccccc3O2)CC1 (stereo not given),33.8 µM,0.04 µM,0.22 µM
CC(CCNC(=O)c1c(Cl)cncc1Cl)N1CCC(C(Oc2ccc(C(F)(F)F)cc2)c2ccc(C(F)(F)F)cc2)CC1 (mixture of isomers),3.1 µM,,> 1.23 µM
COC(=O)c1cccc(OC(c2ccc(C(F)(F)F)cc2)C2CCN(C(C)CCNC(=O)c3c(Cl)cncc3Cl)CC2)n1 (mixture of isomers),14.6 µM,1.05 µM,0.52 µM
CC(CCNC(=O)c1c(Cl)cncc1Cl)N1CCC(N(Cc2ccccc2)c2ccc(Br)cc2)CC1 (stereo not given),4.28 µM,0.03 µM,0.22 µM
CC(CCNC(=O)c1c(Cl)cncc1Cl)N1CCC(C(Oc2cccc(C(=O)O)n2)c2ccc(C(F)(F)F)cc2)CC1 (mixture of isomers),28.7 µM,,> 28.7 µM
CCO/N=C(/c1ccc(Br)cc1)C1CCN(C(CC)CCNC(=O)c2c(C)cc[n+]([O-])c2C)CC1 (stereo not given),> 178 µM,,> 32.8 µM
CCO/N=C(/c1ccc(Br)cc1)C1CCN(C(C)CCN(C)C(=O)c2c(C)cc[n+]([O-])c2C)CC1 (stereo not given),> 183 µM,5.62 µM,> 36.5 µM
CC(CCNC(=O)c1c(Cl)cncc1Cl)N1CCC(C(Oc2ccncc2)c2ccc(Br)cc2)CC1 (mixture of isomers),31.2 µM,,> 0.24 µM
COc1cccc(OC(c2ccc(C(F)(F)F)cc2)C2CCN(C(C)CCNC(=O)c3c(Cl)cncc3Cl)CC2)n1 (mixture of isomers),32.7 µM,,> 1.3 µM
CC(CCNC(=O)c1c(Cl)cncc1Cl)N1CCC(C(Oc2ccccc2C#N)c2ccc(C(F)(F)F)cc2)CC1 (mixture of isomers),17 µM,0.1 µM,2.87 µM
CC(CCNC(=O)c1c(Cl)cncc1Cl)N1CCC(C(Oc2cccc(C(F)(F)F)c2)c2ccc(C(F)(F)F)cc2)CC1 (mixture of isomers),7 µM,,0.03 µM
CCO/N=C(/c1ccc(Br)cc1)C1CCN(CCNC(=O)c2c(C)cc[n+]([O-])c2C)CC1,196 µM,,> 39.2 µM
CCO/N=C(/c1ccc(Br)cc1)C1CCN(C2(CCNC(=O)c3c(Cl)cncc3Cl)CC2)CC1,33 µM,21.4 µM,> 6.6 µM
COC(=O)c1cccc(OC(c2ccc(C(F)(F)F)cc2)C2CCN(C(C)CCNC(=O)c3c(Cl)cncc3Cl)CC2)c1 (mixture of isomers),15.2 µM,,> 6.26 µM
CC(CCNC(=O)c1c(Cl)cncc1Cl)N1CCC(C(Oc2ccccc2)c2ccc(C(F)(F)F)cc2)CC1 (mixture of isomers),6.8 µM,0.05 µM,1.27 µM
CCO/N=C(/c1ccc(Br)cc1)C1CCN(C(C)(C)CCNC(=O)c2c(Cl)cncc2Cl)CC1,34 µM,1.76 µM,> 6.81 µM
CC(CCNC(=O)c1c(Cl)cncc1Cl)N1CCC(C2(c3ccc(C(F)(F)F)cc3)Oc3ccccc3O2)CC1 (stereo not given),7.8 µM,0.03 µM,0.01 µM
CC(CCNC(=O)c1c(Cl)cncc1Cl)N1CCC(C(Oc2cccc(Cl)n2)c2ccc(S(C)(=O)=O)cc2)CC1 (mixture of isomers),> 29.5 µM,0.01 µM,0.004 µM
CC(CCNC(=O)c1c(Cl)cncc1Cl)N1CCC(C(Oc2cccnc2)c2ccc(Br)cc2)CC1 (mixture of isomers),32.5 µM,0.97 µM,3.3 µM

SMILES,CC50 [1],IC50 [2],IC50 [3]
CCO/N=C(/c1ccc(Br)cc1)C1CCN(C(C)CNC(=O)c2c(C)cc[n+]([O-])c2C)CC1 (stereo not given),182 µM,17 µM,> 36.4 µM
CC(CCNC(=O)c1c(Cl)cncc1Cl)N1CCC(C(Oc2cccc(C(F)(F)F)n2)c2ccc(C(F)(F)F)cc2)CC1 (mixture of isomers),13.5 µM,0.13 µM,0.06 µM
Cc1cccnc1OC(c1ccc(C(F)(F)F)cc1)C1CCN(C(C)CCNC(=O)c2c(Cl)cncc2Cl)CC1 (mixture of isomers),33 µM,0.06 µM,2.95 µM
CC(CCNC(=O)c1c(Cl)cncc1Cl)N1CCC(C(O)c2ccc(Br)cc2)CC1 (stereo not given),198 µM,3.39 µM,> 39.6 µM
CC(CCNC(=O)c1c(Cl)cncc1Cl)N1CCC(C(Oc2cc(Cl)ccn2)c2ccc(C(F)(F)F)cc2)CC1 (mixture of isomers),4.26 µM,0.07 µM,0.43 µM
CCO/N=C(/c1ccc(Br)cc1)C1CCN(CCCNC(=O)c2c(C)cc[n+]([O-])c2C)CC1,7.5 µM,0.18 µM,> 1.5 µM
CC(CCNC(=O)c1c(Cl)cncc1Cl)N1CCC(C2=NOCc3cc(Br)ccc32)CC1 (stereo not given),185 µM,12.3 µM,> 7.4 µM
CC(CCNC(=O)c1c(Cl)cncc1Cl)N1CCC(C(Oc2cccc(Cl)c2)c2ccc(C(F)(F)F)cc2)CC1 (mixture of isomers),8.1 µM,0.06 µM,0.07 µM
CCO/N=C(/c1ccc(Br)cc1)C1CCN(C(C)CCNC(=O)c2c(Cl)cncc2Cl)CC1 (stereo not given),33.8 µM,0.13 µM,> 6.7 µM
Cc1cccnc1OC(c1ccc(Br)cc1)C1CCN(C(C)CCNC(=O)c2c(Cl)cncc2Cl)CC1 (mixture of isomers),32.1 µM,0.19 µM,0.34 µM
CC(CCNC(=O)c1c(Cl)cncc1Cl)N1CCC(C(Oc2ccccc2Cl)c2ccc(C(F)(F)F)cc2)CC1 (mixture of isomers),4.4 µM,0.12 µM,> 1.27 µM
CC(CCNC(=O)c1c(Cl)cncc1Cl)N1CCC(C(Oc2cccc(C#N)c2)c2ccc(C(F)(F)F)cc2)CC1 (mixture of isomers),15.7 µM,0.05 µM,0.48 µM
Cc1cccc(OC(c2ccc(C(F)(F)F)cc2)C2CCN(C(C)CCNC(=O)c3c(Cl)cncc3Cl)CC2)n1 (mixture of isomers),6.7 µM,0.04 µM,0.17 µM
Cc1ccnc(OC(c2ccc(C(F)(F)F)cc2)C2CCN(C(C)CCNC(=O)c3c(Cl)cncc3Cl)CC2)c1 (mixture of isomers),33.6 µM,0.05 µM,> 6.72 µM
CC(CCNC(=O)c1c(Cl)cncc1Cl)N1CCC(C(Oc2cccc(F)c2)c2ccc(C(F)(F)F)cc2)CC1 (mixture of isomers),5.4 µM,0.04 µM,0.23 µM
Cc1ccnc(OC(c2ccc(Br)cc2)C2CCN(C(C)CCNC(=O)c3c(Cl)cncc3Cl)CC2)c1 (mixture of isomers),32.5 µM,0.14 µM,1.96 µM
CC(CCNC(=O)c1c(Cl)cncc1Cl)N1CCC(C(Oc2ccccc2C(F)(F)F)c2ccc(C(F)(F)F)cc2)CC1 (mixture of isomers),12.5 µM,,0.1 µM
CC(CCNC(=O)c1c(Cl)cncc1Cl)N1CCC(C(Oc2ccccc2)c2ccc(Br)cc2)CC1 (stereo not given),31.7 µM,0.13 µM,> 1.3 µM
CC(CCNC(=O)c1c(Cl)cncc1Cl)N1CCC(C(Oc2ncccc2Cl)c2ccc(C(F)(F)F)cc2)CC1 (mixture of isomers),16.7 µM,0.14 µM,0.08 µM
Cc1cccc(OC(c2ccc(Br)cc2)C2CCN(C(C)CCNC(=O)c3c(Cl)cncc3Cl)CC2)n1 (mixture of isomers),6.5 µM,0.22 µM,1.55 µM
CC(CCNC(=O)c1c(Cl)cncc1Cl)N1CCC(C(Oc2cccc(Cl)n2)c2ccc(OC(F)(F)F)cc2)CC1 (mixture of isomers),6 µM,0.03 µM,0.002 µM
CC(CCNC(=O)c1c(Cl)cncc1Cl)N1CCC(C(=O)c2ccc(Br)cc2)CC1 (stereo not given),189 µM,,32.6 µM
